The source made the active and inactive calls. The rule behind the calls is not given here.
Legend:
Tetronarce californica [1] = experiment: Binding affinity to Torpedo californica nACh receptor in reconstituted diphytanoylphosphatidylcholine/cholesterol vesicles
[2] = target: Neuronal acetylcholine receptor subunit alpha-4 (Gallus gallus) (UniProt P09482); experiment: Agonist activity at chicken nACh receptor alpha4beta2 expressed in Xenopus laevis oocytes assessed as time taken for current to decay from its peak to 50% at 100 nM by two-electrode voltage clamp assay; type: functional, cell-based; details: Oocyte
Neuronal acetylcholine receptor subunit alpha-4 (Gallus gallus), sequence (P09482 whole entry): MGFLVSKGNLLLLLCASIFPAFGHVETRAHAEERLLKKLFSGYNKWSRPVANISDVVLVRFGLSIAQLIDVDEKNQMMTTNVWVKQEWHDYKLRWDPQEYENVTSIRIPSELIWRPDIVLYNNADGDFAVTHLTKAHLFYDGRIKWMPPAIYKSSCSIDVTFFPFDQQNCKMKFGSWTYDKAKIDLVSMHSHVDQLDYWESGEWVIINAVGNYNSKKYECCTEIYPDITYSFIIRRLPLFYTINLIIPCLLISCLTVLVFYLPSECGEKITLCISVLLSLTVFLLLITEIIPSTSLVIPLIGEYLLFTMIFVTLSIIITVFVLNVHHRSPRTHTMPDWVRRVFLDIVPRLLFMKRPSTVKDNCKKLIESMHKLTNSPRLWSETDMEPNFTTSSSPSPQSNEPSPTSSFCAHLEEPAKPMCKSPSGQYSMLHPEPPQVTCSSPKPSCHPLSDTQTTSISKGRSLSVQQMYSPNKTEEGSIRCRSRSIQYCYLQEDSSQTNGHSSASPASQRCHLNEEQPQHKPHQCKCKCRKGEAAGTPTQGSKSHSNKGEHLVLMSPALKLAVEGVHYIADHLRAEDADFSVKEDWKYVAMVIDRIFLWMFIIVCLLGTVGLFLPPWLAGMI

Tetronarce californica [3] = experiment: Displacement of non fluorescent acetylcholine from torpedo californica nACh receptor

Which results are given for `CCN1/C(=C/C=C/C2=[N+](CCCCCC(=O)NCCCC(=O)OCC[N+](C)(C)C)c3ccc(S(=O)(=O)[O-])cc3C2(C)C)C(C)(C)c2cc(S(=O)(=O)[O-])ccc21`?
Activity (Tetronarce californica [1]): Active; T1/2 [2]: 25 s; Activity (Tetronarce californica [3]): Active

Reference: ChEMBL document CHEMBL1140825, “Cy3-3-acylcholine: a fluorescent analogue of acetylcholine for single molecule detection” (Bioorg Med Chem Lett, 2008)
